Source: patent publication US9540385B2, “Pyrrolopyrimidine compounds as kinase inhibitors” (Pharmacyclics LLC, priority 2012, dated 2017)

Each compound was assayed against T1, BTK (Homo sapiens, UniProt Q06187) (assay: Btk in vitro inhibitory activity / inhibition of a panel of kinases (TR-FRET, mobility shift or radiometric filter binding)). Details: kinase assay by one of methods A, B or C.
T1 construct: purified from insect cells as a full-length construct containing a N-terminal 6×-His tag; His6 (N); made in house; host or cells: insect cells (baculovirus, Sf21)
Assay type: biochemical
Experimental: Btk kinase activity is determined using a time-resolved fluorescence resonance energy transfer (TR-FRET) methodology. Measurements are performed in a reaction volume of 50 μL using 96-well assay plates. Kinase enzyme, inhibitor, ATP (at the Km for the kinase), and 1 μM peptide substrate (Biotin-AVLESEEELYSSARQ-NH2) are incubated in a reaction buffer composed of 20 mM Tris, 50 mM NaCl, MgCl2 (5-25 mM depending on the kinase), MnCl2 (0-10 mM), 1 mM DTT, 0.1 mM EDTA, 0.01% bovine serum albumin, 0.005% Tween-20, and 10% DMSO at pH 7.4 for one hour. The reaction is quenched by the addition of 1.2 equivalents of EDTA (relative to divalent cation) in 25 μL of 1× Lance buffer (Perkin-Elmer). Streptavidin-APC (Perkin-Elmer) and Eu-labeled p-Tyr100 antibody (Perkin-Elmer) in 1× Lance buffer are added in a 25 μL volume to give final concentrations of 100 nM and 2.5 nM, respectively, and the mixture is allowed to incubate for one hour. The TR-FRET signal is measured on a multimode plate reader with an excitation wavelength (λEx) of 330 nm and detection wavelengths (λEm) of 615 and 665 nm. Activity is determined by the ratio of the fluorescence at 665 nm to that at 615 nm. For each compound, enzyme activity is measured at various concentrations of compound. Negative control reactions are performed in the absence of inhibitor in replicates of six, and two no-enzyme controls are used to determine baseline fluorescence levels. Inhibition constants, Ki(app), ware obtained using the program BatchKi (Kuzmic et al. (2000), Anal. Biochem. 286:45-50). IC50s are obtained according to the equation: IC50={Ki(app)/(1+[ATP]/Km^ATP)}+[E]total/2;
For all kinases, [ATP]=Km^ATP, [Btk]total=0.5 nM and [Lck]total=6 nM.
Kinase activity is measured in vitro using electrophoretic mobility shift assay. The kinase reactions are assembled in a total volume of 25 μL in 384 well plates. The reactions comprise: BTK enzyme (1 nM, N-terminal His6-tagged, recombinant, full-length, human BTK purified from baculovirus Sf21 insect cell system), inhibitor, ATP ([…] the apparent Km for the kinase), fluorescently labeled peptide substrate (1 μM, FAM-GEEPLYWSFPAKKK-NH2) in a reaction buffer composed of 100 mM HEPES, pH7.5, 5 mM MgCl2 1 mM DTT, 0.1% bovine serum albumin, 0.01% Triton X-100, and 1% DMSO. The reaction is incubated for one hour and is quenched by the addition of 45 μL of termination buffer (100 mM HEPES, pH7.5, 0.01% Triton X-100, 30 mM EDTA). The terminated reactions are analyzed using 12 channel LabChip® 3000 microfluidic detection instrument (Caliper Life Sciences). The enzymatic phosphorylation of the peptide results in a change in net charge, enabling electrophoretic separation of product from substrate peptide. As substrate and product peptides are separated, two peaks of fluorescence are observed. Change in the relative fluorescence intensity of the substrate and product peaks is the parameter measured, reflecting enzyme activity. In the presence of an inhibitor, the ratio between product and substrate is altered: the signal of the product decreases, while the signal of the substrate increases.
Activity in each sample is determined as the product to sum ratio (PSR):P/(S+P), where P is the peak height of the product peptide and S is the peak height of the substrate peptide. For each compound, enzyme activity is measured at various concentrations (12 concentrations of compound spaced by 3× dilution intervals). Negative control samples (0%-inhibition in the absence of inhibitor) and positive control samples (100%-inhibition, in the presence of 20 mM EDTA) are assembled in replicates of four and are used to calculate %-inhibition values for each inhibitor at each concentration. Percent inhibition (Pinh) is determined using following equation: […]

T1 sequence (Q06187 whole entry): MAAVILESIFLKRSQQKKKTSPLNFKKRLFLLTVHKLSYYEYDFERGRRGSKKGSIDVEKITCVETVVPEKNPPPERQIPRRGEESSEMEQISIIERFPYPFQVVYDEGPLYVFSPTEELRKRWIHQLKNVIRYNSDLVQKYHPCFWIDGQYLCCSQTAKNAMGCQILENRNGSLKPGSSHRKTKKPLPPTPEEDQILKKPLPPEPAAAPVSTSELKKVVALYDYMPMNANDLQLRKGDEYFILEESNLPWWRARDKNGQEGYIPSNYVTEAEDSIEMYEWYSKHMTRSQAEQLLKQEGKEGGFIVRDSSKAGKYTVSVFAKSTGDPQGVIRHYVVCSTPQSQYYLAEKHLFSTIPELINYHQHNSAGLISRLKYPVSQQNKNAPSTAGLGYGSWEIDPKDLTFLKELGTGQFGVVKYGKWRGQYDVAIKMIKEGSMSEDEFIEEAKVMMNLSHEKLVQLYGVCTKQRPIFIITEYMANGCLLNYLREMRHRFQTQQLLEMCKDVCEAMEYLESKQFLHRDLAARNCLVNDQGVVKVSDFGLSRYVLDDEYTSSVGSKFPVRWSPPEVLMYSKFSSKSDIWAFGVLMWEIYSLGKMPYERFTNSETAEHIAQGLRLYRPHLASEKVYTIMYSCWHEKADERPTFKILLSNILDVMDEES

Compound | IC50 [nM]
CCc1c(-c2ccc(Oc3ccccc3)cc2)c2c(N)ncnc2n1[C@@H]1CCN(C(=O)/C=C/CN(C)C2CC2)C1 [Compound 115, (R,E)-1-(3-(4-amino-6-ethyl-5-(4-phenoxyphenyl)-7H-pyrrolo[2,3-d]pyrimidin-7-yl)pyrrolidin-1-yl)-4-(cyclopropyl(methyl)amino)but-2-en-1-one] | 100 to 1000
CN(C/C=C/C(=O)N1CC[C@@H](n2c(C3CC3)c(-c3ccc(Oc4ccccc4)cc3)c3c(N)ncnc32)C1)[C@@H]1CCOC1 [Compound 97, (E)-1-((R)-3-(4-amino-6-cyclopropyl-5-(4-phenoxyphenyl)-7H-pyrrolo[2,3-d]pyrimidin-7-yl)pyrrolidin-1-yl)-4-(methyl((R)-tetrahydrofuran-3-yl)amino)but-2-en-1-one] | < 100
CN(C(=O)/C=C/CN(C)C1CC1)c1ccc(-n2c(Cl)c(-c3ccc(Cl)cc3)c3c(N)ncnc32)cc1 [Compound 31, (E)-N-(4-(4-amino-6-chloro-5-(4-chlorophenyl)-7H-pyrrolo[2,3-d]pyrimidin-7-yl)phenyl)-4-(cyclopropyl(methyl)amino)-N-methylbut-2-enamide] | < 100
CN(C/C=C/C(=O)N1CC[C@@H](n2c(C(F)F)c(-c3ccc(Oc4ccccc4)cc3)c3c(N)ncnc32)C1)C1CC1 [Compound 122, (R,E)-1-(3-(4-amino-6-(difluoromethyl)-5-(4-phenoxyphenyl)-7H-pyrrolo[2,3-d]pyrimidin-7-yl)pyrrolidin-1-yl)-4-(cyclopropyl(methyl)amino)but-2-en-1-one] | < 100
CN(C/C=C/C(=O)N1CC[C@@H](n2c(C(=O)O)c(-c3ccc(Oc4ccccc4)cc3)c3c(N)ncnc32)C1)C1CC1 [Compound 128, (R,E)-4-amino-7-(1-(4-(cyclopropyl(methyl)amino)but-2-enoyl)pyrrolidin-3-yl)-5-(4-phenoxyphenyl)-7H-pyrrolo[2,3-d]pyrimidine-6-carboxylic acid] | < 100
CN(C/C=C/C(=O)N1CC[C@@H](n2c(C(N)=O)c(-c3ccc(Oc4ccccc4)cc3)c3c(N)ncnc32)C1)C1CC1 [Compound 126, (R,E)-4-amino-7-(1-(4-(cyclopropyl(methyl)amino)but-2-enoyl)pyrrolidin-3-yl)-5-(4-phenoxyphenyl)-7H-pyrrolo[2,3-d]pyrimidine-6-carboxamide] | < 100
CC(C)c1c(-c2ccc(Oc3ccccc3)cc2)c2c(N)ncnc2n1[C@@H]1CCN(C(=O)/C=C/CN(C)C2CC2)C1 [Compound 118, (R,E)-1-(3-(4-amino-6-isopropyl-5-(4-phenoxyphenyl)-7H-pyrrolo[2,3-d]pyrimidin-7-yl)pyrrolidin-1-yl)-4-(cyclopropyl(methyl)amino)but-2-en-1-one] | 100 to 1000
CN(C/C=C/C(=O)N1CC[C@@H](n2c(Cl)c(-c3ccc(Oc4ccccc4)cc3)c3c(N)ncnc32)C1)[C@@H]1CCOC1 [Compound 57, (E)-1-((R)-3-(4-amino-6-chloro-5-(4-phenoxyphenyl)-7H-pyrrolo[2,3-d]pyrimidin-7-yl)pyrrolidin-1-yl)-4-(methyl((R)-tetrahydrofuran-3-yl)amino)but-2-en-1-one] | < 100
Cc1c(-c2ccc(Oc3ccccc3)cc2)c2c(N)ncnc2n1[C@@H]1CCCN(C(=O)/C=C/CN(C)C2CC2)C1 [Compound 72, (R,E)-1-(3-(4-amino-6-methyl-5-(4-phenoxyphenyl)-7H-pyrrolo[2,3-d]pyrimidin-7-yl)piperidin-1-yl)-4-(cyclopropyl(methyl)amino)but-2-en-1-one] | < 100
COCCN(C/C=C/C(=O)N1CC[C@@H](n2c(C)c(-c3ccc(Oc4ccccc4)cc3)c3c(N)ncnc32)C1)CCOC [Compound 79, (R,E)-1-(3-(4-amino-6-methyl-5-(4-phenoxyphenyl)-7H-pyrrolo[2,3-d]pyrimidin-7-yl)pyrrolidin-1-yl)-4-(bis(2-methoxyethyl)amino)but-2-en-1-one] | < 100
Cc1c(-c2ccc(Oc3ccccc3)cc2)c2c(N)ncnc2n1[C@@H]1CCN(C(=O)/C=C/CN(C)[C@H]2CCOC2)C1 [Compound 129, (E)-1-((R)-3-(4-amino-6-methyl-5-(4-phenoxyphenyl)-7H-pyrrolo[2,3-d]pyrimidin-7-yl)pyrrolidin-1-yl)-4-(methyl((S)-tetrahydrofuran-3-yl)amino)but-2-en-1-one] | < 100
Cc1c(-c2ccc(Oc3cccc(F)c3)cc2)c2c(N)ncnc2n1[C@@H]1CCN(C(=O)/C=C/CN(C)C2CC2)C1 [Compound 53, (R,E)-1-(3-(4-amino-5-(4-(3-fluorophenoxyl)phenyl)-6-methyl-7H-pyrrolo[2,3-d]pyrimidin-7-yl)pyrrolidin-1-yl)-4-(cyclopropyl(methyl)amino)but-2-en-1-one] | < 100

Now from value to compound:

IC50 [nM] | Compound
< 100 | COc1c(-c2ccc(Oc3ccccc3)cc2)c2c(N)ncnc2n1[C@@H]1CCN(C(=O)/C=C/CN(C)C)C1 [Compound 88, (R,E)-1-(3-(4-amino-6-methoxy-5-(4-phenoxyphenyl)-7H-pyrrolo[2,3-d]pyrimidin-7-yl)pyrrolidin-1-yl)-4-(dimethylamino)but-2-en-1-one]
< 100 | COCCN(C)C/C=C/C(=O)N1CC[C@@H](n2c(Cl)c(-c3ccc(Oc4ccccc4)cc3)c3c(N)ncnc32)C1 [Compound 55, (R,E)-1-(3-(4-amino-6-chloro-5-(4-phenoxyphenyl)-7H-pyrrolo[2,3-d]pyrimidin-7-yl)pyrrolidin-1-yl)-4-((2-methoxyethyl)(methyl)amino)but-2-en-1-one]
< 100 | COc1c(-c2ccc(Oc3ccccc3)cc2)c2c(N)ncnc2n1[C@@H]1CCN(C(=O)/C=C/CN(C)C2CC2)C1 [Compound 89, (R,E)-1-(3-(4-amino-6-methoxy-5-(4-phenoxyphenyl)-7H-pyrrolo[2,3-d]pyrimidin-7-yl)pyrrolidin-1-yl)-4-(cyclopropyl(methyl)amino)but-2-en-1-one]
< 100 | CN(C)C/C=C/C(=O)N1CC[C@@H](n2c(C#N)c(-c3ccc(Oc4ccccc4)cc3)c3c(N)ncnc32)C1 [Compound 102, (R,E)-4-amino-7-(1-(4-(dimethylamino)but-2-enoyl)pyrrolidin-3-yl)-5-(4-phenoxyphenyl)-7H-pyrrolo[2,3-d]pyrimidine-6-carbonitrile]
< 100 | COCCN(C/C=C/C(=O)N1CC[C@@H](n2c(C#N)c(-c3ccc(Oc4ccccc4)cc3)c3c(N)ncnc32)C1)CCOC [Compound 105, (R,E)-4-amino-7-(1-(4-(bis(2-methoxyethyl)amino)but-2-enoyl)pyrrolidin-3-yl)-5-(4-phenoxyphenyl)-7H-pyrrolo[2,3-d]pyrimidine-6-carbonitrile]
< 100 | COCCN(C)C/C=C/C(=O)N1CC[C@@H](n2c(C)c(-c3ccc(Oc4ccccc4)cc3)c3c(N)ncnc32)C1 [Compound 61, (R,E)-1-(3-(4-amino-6-methyl-5-(4-phenoxyphenyl)-7H-pyrrolo[2,3-d]pyrimidin-7-yl)pyrrolidin-1-yl)-4-((2-methoxyethyl)(methyl)amino)but-2-en-1-one]
< 100 | CN(C/C=C/C(=O)N1CC[C@@H](n2c(N)c(-c3ccc(Oc4ccccc4)cc3)c3c(N)ncnc32)C1)C1CC1 [Compound 162, (R,E)-4-(cyclopropyl(methyl)amino)-1-(3-(4,6-diamino-5-(4-phenoxyphenyl)-7H-pyrrolo[2,3-d]pyrimidin-7-yl)pyrrolidin-1-yl)but-2-en-1-one]
